Assay results reported in PubChem BioAssay AID1963450 (Molecular Pharmacology Branch, DTP, NCI, 2024).

Tested on: 556581-035-R-J1-PDC complex spheroid growth
Experiment: Anticancer human tumor 556581-035-R-J1-PDC patient-derived ovarian carcinoma cell line growth inhibition [Asc]
Details: for IC50: curve of first compound; for viability, T/C: stronger effect = lower value
In short: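 Spheroid model: tumor line + HUVEC + hMSC. Single agents and combinations; top conc. at/near clinical Cmax (10 microM if undetermined), half-log dilutions. DMSO stocks at 800-fold test concentration.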

[1] = second compound 0.03 µM, first compound 0.00316 µM
[2] = second compound 0.03 µM, first compound 0.01 µM
[3] = second compound 0.03 µM, first compound 0.0316 µM
[4] = second compound 0.03 µM, first compound 0.1 µM
[5] = second compound 0.0949 µM, first compound 0.00316 µM
[6] = second compound 0.0949 µM, first compound 0.01 µM
[7] = second compound 0.0949 µM, first compound 0.0316 µM
[8] = second compound 0.0949 µM, first compound 0.1 µM
[9] = second compound 0.3 µM, first compound 0.00316 µM
[10] = second compound 0.3 µM, first compound 0.01 µM
[11] = second compound 0.3 µM, first compound 0.0316 µM
[12] = second compound 0.3 µM, first compound 0.1 µM
[13] = second compound 0.949 µM, first compound 0.00316 µM
[14] = second compound 0.949 µM, first compound 0.01 µM
[15] = second compound 0.949 µM, first compound 0.0316 µM
[16] = second compound 0.949 µM, first compound 0.1 µM
[17] = second compound 3 µM, first compound 0.00316 µM
[18] = second compound 3 µM, first compound 0.01 µM
[19] = second compound 3 µM, first compound 0.0316 µM
[20] = second compound 3 µM, first compound 0.1 µM
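Also: spheroids exposed to agents for 7 days before viability read.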

Question: Which results are given for `COc1c(OCCCN2CCOCC2)ccc2c3n(c(=NC(=O)c4cnc(N)nc4)nc12)CCN3` + CCN1C(C(=O)NC23CCC(C(=O)O)(CC2)CC3)C(c2cccc(Cl)c2F)C2(C(=O)Nc3cc(Cl)ccc32)C12CCCCC2?
Answer: IC50 (second compound 0.03 µM): 0.0589 µM; IC50 (second compound 0.0949 µM): 0.0427 µM; IC50 (second compound 0.3 µM): 0.0394 µM; IC50 (second compound 0.949 µM): 0.0511 µM; IC50 (second compound 3 µM): 0.0333 µM; viability, T/C [1]: 71.9%; viability, T/C [2]: 65.5%; viability, T/C [3]: 59.2%; viability, T/C [4]: 43.3%; viability, T/C (second compound 0.03 µM, first compound 0.316 µM): 20%; viability, T/C (second compound 0.03 µM, first compound 1 µM): 13.4%; viability, T/C [5]: 78.3%; viability, T/C [6]: 70.1%; viability, T/C [7]: 51.7%; viability, T/C [8]: 39.3%; viability, T/C (second compound 0.0949 µM, first compound 0.316 µM): 25.7%; viability, T/C (second compound 0.0949 µM, first compound 1 µM): 13.5%; viability, T/C [9]: 76.7%; viability, T/C [10]: 70%; viability, T/C [11]: 50.2%; viability, T/C [12]: 39%; viability, T/C (second compound 0.3 µM, first compound 0.316 µM): 22.5%; viability, T/C (second compound 0.3 µM, first compound 1 µM): 15.4%; viability, T/C [13]: 78.3%; viability, T/C [14]: 75.2%; viability, T/C [15]: 58.2%; viability, T/C [16]: 40.2%; viability, T/C (second compound 0.949 µM, first compound 0.316 µM): 21.6%; viability, T/C (second compound 0.949 µM, first compound 1 µM): 45.8%; viability, T/C [17]: 62.2%; viability, T/C [18]: 57.9%; viability, T/C [19]: 46.7%; viability, T/C [20]: 45.5%; viability, T/C (second compound 3 µM, first compound 0.316 µM): 27.5%; viability, T/C (second compound 3 µM, first compound 1 µM): 14.6%

Question: What does the source list for `NC(=O)C(=Cn1cnc(-c2cc(C(F)(F)F)cc(C(F)(F)F)c2)n1)c1cncnc1` + CCN1C(C(=O)NC23CCC(C(=O)O)(CC2)CC3)C(c2cccc(Cl)c2F)C2(C(=O)Nc3cc(Cl)ccc32)C12CCCCC2?
Answer: IC50 (second compound 0.03 µM): > 0.3 µM; IC50 (second compound 0.0949 µM): > 0.3 µM; IC50 (second compound 0.3 µM): > 0.3 µM; IC50 (second compound 0.949 µM): > 0.3 µM; IC50 (second compound 3 µM): > 0.3 µM; viability, T/C (second compound 0.03 µM, first compound 0.000949 µM): 81%; viability, T/C (second compound 0.03 µM, first compound 0.003 µM): 96.2%; viability, T/C (second compound 0.03 µM, first compound 0.00949 µM): 87.3%; viability, T/C (second compound 0.03 µM, first compound 0.03 µM): 83.1%; viability, T/C (second compound 0.03 µM, first compound 0.0949 µM): 86.6%; viability, T/C (second compound 0.03 µM, first compound 0.3 µM): 86.6%; viability, T/C (second compound 0.0949 µM, first compound 0.000949 µM): 97.6%; viability, T/C (second compound 0.0949 µM, first compound 0.003 µM): 99.7%; viability, T/C (second compound 0.0949 µM, first compound 0.00949 µM): 92.9%; viability, T/C (second compound 0.0949 µM, first compound 0.03 µM): 86.7%; viability, T/C (second compound 0.0949 µM, first compound 0.0949 µM): 90.8%; viability, T/C (second compound 0.0949 µM, first compound 0.3 µM): 101%; viability, T/C (second compound 0.3 µM, first compound 0.000949 µM): 103%; viability, T/C (second compound 0.3 µM, first compound 0.003 µM): 91.6%; viability, T/C (second compound 0.3 µM, first compound 0.00949 µM): 94.9%; viability, T/C (second compound 0.3 µM, first compound 0.03 µM): 87.3%; viability, T/C (second compound 0.3 µM, first compound 0.0949 µM): 86.7%; viability, T/C (second compound 0.3 µM, first compound 0.3 µM): 97.1%; viability, T/C (second compound 0.949 µM, first compound 0.000949 µM): 88.4%; viability, T/C (second compound 0.949 µM, first compound 0.003 µM): 108%; viability, T/C (second compound 0.949 µM, first compound 0.00949 µM): 92.5%; viability, T/C (second compound 0.949 µM, first compound 0.03 µM): 101%; viability, T/C (second compound 0.949 µM, first compound 0.0949 µM): 90%; viability, T/C (second compound 0.949 µM, first compound 0.3 µM): 91.6%; viability, T/C (second compound 3 µM, first compound 0.000949 µM): 83.5%; viability, T/C (second compound 3 µM, first compound 0.003 µM): 87.9%; viability, T/C (second compound 3 µM, first compound 0.00949 µM): 81.7%; viability, T/C (second compound 3 µM, first compound 0.03 µM): 87.7%; viability, T/C (second compound 3 µM, first compound 0.0949 µM): 78.3%; viability, T/C (second compound 3 µM, first compound 0.3 µM): 61.2%

Question: With `NC1CCC(NC2CC2c2ccccc2)CC1` (stereo not given) + CCN1C(C(=O)NC23CCC(C(=O)O)(CC2)CC3)C(c2cccc(Cl)c2F)C2(C(=O)Nc3cc(Cl)ccc32)C12CCCCC2 as the compound, how does the IC50 (second compound 0.03 µM) read?
Answer: > 0.1 µM

Question: And the IC50 (second compound 0.0949 µM)?
Answer: > 0.1 µM

Question: What about the IC50 (second compound 0.3 µM) of the same compound?
Answer: > 0.1 µM

Question: And the IC50 (second compound 0.949 µM)?
Answer: > 0.1 µM

Question: And the IC50 (second compound 3 µM)?
Answer: > 0.1 µM

Question: And the viability, T/C (second compound 0.03 µM, first compound 0.000316 µM)?
Answer: 105%

Question: And the viability, T/C (second compound 0.03 µM, first compound 0.001 µM)?
Answer: 103%

Question: What about the viability, T/C [1] of the same compound?
Answer: 107%

Question: And the viability, T/C [2]?
Answer: 98.7%

Question: And the viability, T/C [3]?
Answer: 97.7%

Question: And the viability, T/C [4]?
Answer: 84.5%

Question: And the viability, T/C (second compound 0.0949 µM, first compound 0.000316 µM)?
Answer: 113%

Question: What about the viability, T/C (second compound 0.0949 µM, first compound 0.001 µM) of the same compound?
Answer: 105%

Question: What about the viability, T/C [5] of the same compound?
Answer: 100%

Question: And the viability, T/C [6]?
Answer: 93%

Question: And the viability, T/C [7]?
Answer: 107%

Question: What about the viability, T/C [8] of the same compound?
Answer: 103%

Question: What about the viability, T/C (second compound 0.3 µM, first compound 0.000316 µM) of the same compound?
Answer: 108%

Question: What about the viability, T/C (second compound 0.3 µM, first compound 0.001 µM) of the same compound?
Answer: 100%

Question: What about the viability, T/C [9] of the same compound?
Answer: 105%

Question: What about the viability, T/C [10] of the same compound?
Answer: 100%

Question: What about the viability, T/C [11] of the same compound?
Answer: 97.7%

Question: What about the viability, T/C [12] of the same compound?
Answer: 96.6%

Question: And the viability, T/C (second compound 0.949 µM, first compound 0.000316 µM)?
Answer: 107%

Question: What about the viability, T/C (second compound 0.949 µM, first compound 0.001 µM) of the same compound?
Answer: 92.1%

Question: What about the viability, T/C [13] of the same compound?
Answer: 82.9%

Question: What about the viability, T/C [14] of the same compound?
Answer: 106%

Question: And the viability, T/C [15]?
Answer: 95.2%

Question: And the viability, T/C [16]?
Answer: 96.5%

Question: What about the viability, T/C (second compound 3 µM, first compound 0.000316 µM) of the same compound?
Answer: 85.7%

Question: And the viability, T/C (second compound 3 µM, first compound 0.001 µM)?
Answer: 101%

Question: And the viability, T/C [17]?
Answer: 89.1%

Question: And the viability, T/C [18]?
Answer: 85.1%

Question: What about the viability, T/C [19] of the same compound?
Answer: 92.8%

Question: What about the viability, T/C [20] of the same compound?
Answer: 92.7%
